Reference: patent US20250388576A1, “PYRIDONOPYRIMIDINE DERIVATIVE AS RSK INHIBITOR AND USE THEREOF” (EAST CHINA NORMAL UNIVERSITY, priority 2022, published 2025)

Columns and labels:
[1] = system: esophageal squamous cell carcinoma cells KYSE150; assay: Anti-cell proliferation activity (CCK8), KYSE150; assay type: cell-based; conditions: Homo sapiens, KYSE-150, 72 hours
Experimental: (§1) The specific experimental procedure is as follows: cells were digested and centrifuged at 1000 rpm for 3 minutes. The cell density was adjusted to 3×10^4 cells/mL. 3000 cells per well was seeded, and the outermost ring was filled with culture medium. The plate was placed in a 37° C., 5% CO2 incubator overnight to allow cell attachment. The 10 mM stock solution was diluted to 100 μM with the culture medium, and then further diluted in three-fold with the culture medium containing 1% DMSO to prepare eight concentration gradients. 10 μL of the compound was added to each well, and the remaining volume was filled with 10 μL of culture medium containing 1% DMSO. After culturing the cells for 72 hours, 10 μL of CCK8 reagent was added to each well. […] Cell viability (%)=(OD of drug-treated cells−OD of blank)/(OD of control cells−OD of blank)×100%. After the experiment was independently repeated for three times, the variance was calculated and statistical graphs were created to analyze the effect of the drug on cell viability. IC50 values were calculated by fitting with GraphPad Prism software.

[2] = system: esophageal squamous cell carcinoma cells KYSE510; assay: Anti-cell proliferation activity (CCK8), KYSE510; assay type: cell-based; conditions: Homo sapiens, KYSE-510, 72 hours
Experimental: as §1

[3] = system: esophageal squamous cell carcinoma cells TE10; assay: Anti-cell proliferation activity (CCK8), TE10; assay type: cell-based; conditions: Homo sapiens, TE-10, 72 hours
Experimental: as §1

renal cancer cells ACHN = assay: Anti-cell proliferation activity (CCK8), ACHN; assay type: cell-based; conditions: Homo sapiens, 72 hours
Experimental: as §1

RSK4 kinase = RSK4 kinase (Homo sapiens (Human), UniProt Q9UK32); assay: In vitro enzyme activity assay (Kinase-Glo), RSK4; assay type: biochemical; conditions: 10 μM ATP, 30° C., 40 minutes
Chain of RSK4 kinase (Q9UK32 whole entry): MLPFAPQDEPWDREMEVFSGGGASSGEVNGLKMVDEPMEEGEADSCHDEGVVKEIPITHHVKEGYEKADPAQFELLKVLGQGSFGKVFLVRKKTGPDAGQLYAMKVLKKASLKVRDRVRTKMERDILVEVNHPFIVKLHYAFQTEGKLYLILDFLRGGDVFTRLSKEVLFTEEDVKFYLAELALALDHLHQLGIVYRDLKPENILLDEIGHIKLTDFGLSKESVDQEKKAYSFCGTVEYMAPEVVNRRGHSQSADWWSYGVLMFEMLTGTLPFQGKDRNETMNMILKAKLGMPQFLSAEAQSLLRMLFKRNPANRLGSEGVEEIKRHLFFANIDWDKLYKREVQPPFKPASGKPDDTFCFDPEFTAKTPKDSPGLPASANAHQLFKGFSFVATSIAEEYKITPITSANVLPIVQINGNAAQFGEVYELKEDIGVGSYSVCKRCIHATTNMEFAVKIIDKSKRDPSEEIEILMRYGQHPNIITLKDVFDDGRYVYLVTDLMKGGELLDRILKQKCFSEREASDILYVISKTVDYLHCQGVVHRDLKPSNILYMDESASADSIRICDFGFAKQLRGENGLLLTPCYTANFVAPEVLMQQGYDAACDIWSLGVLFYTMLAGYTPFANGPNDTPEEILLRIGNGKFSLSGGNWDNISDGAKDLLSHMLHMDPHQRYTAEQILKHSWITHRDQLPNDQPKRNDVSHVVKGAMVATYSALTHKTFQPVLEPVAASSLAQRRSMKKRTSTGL
Experimental: The experiment for testing the in vitro inhibiting effect of the compound provided in the present invention on the activity of RSK4 kinase is as follows. The method for RSK1-3 was the same as that for RSK4 (Kashem, M. A. et al. J. Biomol. Screen. 12, 70-83):
All enzyme reactions were carried out at 30° C. for 40 minutes. 50 μL of reaction mixture contains 40 mM Tris, pH 7.4, 10 mM MgCl2, 0.1 mg/mL BSA, 1 mM DTT, 10 μM ATP, 0.2 μg/mL kinase, and 100 μM lipid substrate. The compound was diluted in 10% DMSO, and 5 μL of the diluted solution was added to 50 μL of the reaction, so that the final concentration of DMSO in all reactions was 1%. Kinase-Glo reagent was added to the reaction system for detection. Kinase activity was measured by quantifying the amount of ATP remaining in the solution after the kinase reaction. IC50 values were calculated using nonlinear regression, and each experiment was repeated more than twice.

CC(C)CCN1c2nc(Nc3cc(F)c(O)c(F)c3)ncc2N(C)C(=O)C1C (stereo not drawn) [BI-D1870, reference compound]
IC50 [1]: 20200 ± 1560 nM
IC50 [2]: 11700 ± 2580 nM
IC50 [3]: 3860 ± 760 nM
IC50 (renal cancer cells ACHN): > 10000 nM

CC(=O)N(c1cc(F)c(O)c(F)c1)c1ncc2c(C)cc(=O)n(C3CCCC3)c2n1 [Compound 002, N-(8-Cyclopentyl-5-methyl-7-oxo-7,8-dihydropyrido[2,3-d]pyrimidin-2-yl)-N-(3,5-difluoro-4-hydroxyphenyl)acetamide]
IC50 (RSK4 kinase): 139 ± 19 nM

Cc1cc(=O)n(C2CCCC2)c2nc(Nc3cc(F)c(O)c(F)c3)ncc12 [Compound 003, 8-Cyclopentyl-2-((3,5-difluoro-4-hydroxyphenyl)amino)-5-methylpyrido[2,3-d]pyrimidin-7(8H)-one]
IC50 [1]: 4080 ± 1120 nM
IC50 [2]: 3130 ± 1160 nM
IC50 (renal cancer cells ACHN): 3100 ± 110 nM
IC50 (RSK4 kinase): 12 ± 3 nM

Cc1cc(=O)n(C2CCCC2)c2nc(Nc3ccc4[nH]nnc4c3)ncc12 [Compound 004, 2-((1H-benzo[d][1,2,3]triazol-5-yl)amino)-8-cyclopentyl-5-methylpyrido[2,3-d]pyrimidin-7(8H)-one]
IC50 (RSK4 kinase): 3020 ± 673 nM

Cc1cc(=O)n(C2CCCC2)c2nc(Nc3ccc4c(c3)CC(=O)N4)ncc12 [Compound 007, 8-Cyclopentyl-5-methyl-2-((2-oxoindolin-5-yl)amino)pyrido[2,3-d]pyrimidin-7(8H)-one]
IC50 [1]: 4650 ± 2110 nM
IC50 [2]: 6150 ± 270 nM
IC50 (renal cancer cells ACHN): 1940 ± 70 nM
IC50 (RSK4 kinase): 17 ± 6 nM

Cc1cc(=O)n(C2CCCC2)c2nc(Nc3ccc4[nH]c(=O)oc4c3)ncc12 [Compound 008, 6-((8-Cyclopentyl-5-methyl-7-oxo-7,8-dihydropyrido[2,3-d]pyrimidin-2-yl)amino)benzo[d]oxazol-2(3H)-one]
IC50 (RSK4 kinase): 10800 ± 2030 nM

Cc1cc(=O)n(C2CCCC2)c2nc(Nc3cc(F)c4[nH]ncc4c3)ncc12 [Compound 009, 8-Cyclopentyl-2-((7-fluoro-1H-indazol-5-yl)amino)-5-methylpyrido[2,3-d]pyrimidin-7(8H)-one]
IC50 (RSK4 kinase): 39 ± 8 nM

Cc1cc(=O)n(C2CCCC2)c2nc(Nc3ccc(F)c4[nH]ncc34)ncc12 [Compound 010]
IC50 (RSK4 kinase): 180 ± 16 nM

Cc1c(Br)c(=O)n(C2CCCC2)c2nc(Nc3ccc4[nH]ncc4c3)ncc12 [Compound 011, 2-((1H-indazol-5-yl)amino)-6-bromo-8-cyclopentyl-5-methylpyrido[2,3-d]pyrimidin-7(8H)-one]
IC50 (RSK4 kinase): 44 ± 7 nM

Cc1cc(=O)n(C2CCCC2)c2nc(Nc3ccc4[nH]nc(F)c4c3)ncc12 [Compound 012, 8-Cyclopentyl-2-[(3-fluoro-1H-indazol-5-yl)amino]-5-methylpyrido[2,3-d]pyrimidin-7(8H)-one]
IC50 (RSK4 kinase): 280 ± 54 nM

Cc1cc(=O)n(C2CCCC2)c2nc(Nc3cnc4[nH]ncc4c3)ncc12 [Compound 013, 2-((1H-pyrazolo[3,4-b]pyridin-5-yl)amino)-8-cyclopentyl-5-methylpyrido[2,3-d]pyrimidin-7(8H)-one]
IC50 (RSK4 kinase): 39 ± 4 nM

Cc1c(Br)c(=O)n(C2CCCC2)c2nc(Nc3ccc4c(c3)CC(=O)N4)ncc12 [Compound 014, 6-Bromo-8-cyclopentyl-5-methyl-2-(2-oxoindolin-5-ylamino)pyrido[2,3-d]pyrimidin-7(8H)-one]
IC50 (RSK4 kinase): 214 ± 20 nM

Cc1cc(=O)n(C2CCC(F)(F)C2)c2nc(Nc3ccc4c(c3)CC(=O)N4)ncc12 (stereo not drawn) [Compound 015, 8-(3,3-Difluorocyclopentyl)-5-methyl-2-((2-oxoindolin-5-yl)amino)pyrido[2,3-d]pyrimidin-7(8H)-one]
IC50 (RSK4 kinase): 46 ± 4 nM

Cc1cc(=O)n(C2CCC(F)(F)C2)c2nc(Nc3cc(F)c4[nH]ncc4c3)ncc12 (stereo not drawn) [Compound 016, 8-(3,3-Difluorocyclopentyl)-2-((7-fluoro-1H-indazol-5-yl)amino)-5-methylpyrido[2,3-d]pyrimidin-7(8H)-one]
IC50 [3]: 1700 ± 1430 nM
IC50 (renal cancer cells ACHN): 870 ± 370 nM
IC50 (RSK4 kinase): 13 ± 3 nM

Cc1cc(=O)n(C2CCC(F)(F)C2)c2nc(Nc3cnc4[nH]ncc4c3)ncc12 (stereo not drawn) [Compound 017, 2-((1H-pyrazolo[3,4-b]pyridin-5-yl)amino)-8-(3,3-difluorocyclopentyl)-5-methylpyrido[2,3-d]pyrimidin-7(8H)-one]
IC50 (RSK4 kinase): 12 ± 2 nM

Cc1cc(=O)n(C2CCC(O)C2)c2nc(Nc3ccc4[nH]ncc4c3)ncc12 (stereo not drawn) [Compound 018, 2-((1H-indazol-5-yl)amino)-8-(3-hydroxycyclopentyl)-5-methylpyrido[2,3-d]pyrimidin-7(8H)-one]
IC50 (RSK4 kinase): 30 ± 12 nM

Cc1cc(=O)n(C2CCCCC2)c2nc(Nc3ccc4[nH]ncc4c3)ncc12 [Compound 019, 2-((1H-indazol-5-yl)amino)-5-methyl-8-(cyclohexyl)pyrido[2,3-d]pyrimidin-7(8H)-one]
IC50 (RSK4 kinase): 86 ± 41 nM

Cc1cc(=O)n(C2CCCCCC2)c2nc(Nc3ccc4[nH]ncc4c3)ncc12 [Compound 020, 2-((1H-indazol-5-yl)amino)-5-methyl-8-(cycloheptyl)pyrido[2,3-d]pyrimidin-7(8H)-one]
IC50 (RSK4 kinase): 201 ± 77 nM

Cc1cc(=O)n(C2CCOC2)c2nc(Nc3ccc4[nH]ncc4c3)ncc12 (stereo not drawn) [Compound 021, 2-((1H-indazol-5-yl)amino)-5-methyl-8-(tetrahydrofuran-3-yl)pyrido[2,3-d]pyrimidin-7(8H)-one]
IC50 (RSK4 kinase): 392 ± 162 nM
